Legend:
Format in all cases: in vivo
Details in all cases: 250 g/ha, evaluated after 13 days
[1] = test system: Echinochloa crus-galli (ECHCG); assay: Pre-emergence herbicide glasshouse test
How it was run: (§1)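 Species sown in standard soil and sprayed 1 day (pre-emergence) or 8 days (post-emergence) after sowing, at 250 g/ha unless noted, in acetone/water (50:50) with 0.5% Tween 20. Glasshouse at 24/16 °C day/night, 14 h light, 65% humidity. Percentage damage scored after 13 days on a 1–5 scale (5=81–100%, 1=0–20%).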

[2] = test system: Ipomoea hederacea (IPOHE); assay: Pre-emergence herbicide glasshouse test
How it was run: as §1

[3] = test system: Amaranthus palmeri (AMAPA); assay: Pre-emergence herbicide glasshouse test
How it was run: as §1

[4] = test system: Amaranthus retoflexus (AMARE); assay: Pre-emergence herbicide glasshouse test
How it was run: as §1

[5] = test system: Echinochloa crus-galli (ECHCG); assay: Post-emergence herbicide glasshouse test
How it was run: as §1

[6] = test system: Ipomoea hederacea (IPOHE); assay: Post-emergence herbicide glasshouse test
How it was run: as §1

[7] = test system: Amaranthus palmeri (AMAPA); assay: Post-emergence herbicide glasshouse test
How it was run: as §1

[8] = test system: Amaranthus retoflexus (AMARE); assay: Post-emergence herbicide glasshouse test
How it was run: as §1

| Compound | percentage damage caused to the plant, ECHCG (five-point scale) [1] | percentage damage caused to the plant, IPOHE (five-point scale) [2] | percentage damage caused to the plant, AMAPA (five-point scale) [3] | percentage damage caused to the plant, AMARE (five-point scale) [4] | percentage damage caused to the plant, ECHCG (five-point scale) [5] | percentage damage caused to the plant, IPOHE (five-point scale) [6] | percentage damage caused to the plant, AMAPA (five-point scale) [7] | percentage damage caused to the plant, AMARE (five-point scale) [8] |
| --- | --- | --- | --- | --- | --- | --- | --- | --- |
| Cc1noc(C)c1Cn1cc(C(F)(F)F)nc1-c1ccc(C(F)(F)F)cc1 [Compound 1.005] | 1 (1=0-20%) | 1 (1=0-20%) | 5 (5=81-100%) | 5 (5=81-100%) | 1 (1=0-20%) | 1 (1=0-20%) | 1 (1=0-20%) | 1 (1=0-20%) |
| Cc1cc(Cn2cc(C(F)(F)F)nc2-c2ccc(F)c(F)c2)ns1 [Compound 1.162] | 5 (5=81-100%) | 3 (3=41-60%) | 5 (5=81-100%) | 5 (5=81-100%) | 5 (5=81-100%) | 4 (4=61-80%) | 5 (5=81-100%) | 5 (5=81-100%) |
| Fc1cc(-c2nc(C(F)(F)F)cn2Cc2ccc(Cl)s2)cnc1Cl [Compound 1.174] | 1 (1=0-20%) | 1 (1=0-20%) | 5 (5=81-100%) | 5 (5=81-100%) | 1 (1=0-20%) | 2 (2=21-40%) | 5 (5=81-100%) | 5 (5=81-100%) |
| Cc1nnc(Cn2cc(C(F)(F)F)nc2-c2ccc([S+](C)[O-])cc2)s1 (stereo not shown) [Compound 1.178] | 1 (1=0-20%) | 4 (4=61-80%) | 3 (3=41-60%) | 3 (3=41-60%) | 1 (1=0-20%) | 1 (1=0-20%) | 1 (1=0-20%) | 1 (1=0-20%) |
| Cc1noc(Cn2cc(C(F)(F)F)nc2-c2cnc(F)c(Cl)c2)n1 [Compound 1.151] | 3 (3=41-60%) | 5 (5=81-100%) | 5 (5=81-100%) | 5 (5=81-100%) | 3 (3=41-60%) | 4 (4=61-80%) | 5 (5=81-100%) | 5 (5=81-100%) |
| Cc1nnc(Cn2cc(C(F)(F)F)nc2-c2ccc(F)c(F)c2)s1 [Compound 1.021] | 5 (5=81-100%) | 5 (5=81-100%) | 5 (5=81-100%) | 5 (5=81-100%) | 4 (4=61-80%) | 4 (4=61-80%) | 5 (5=81-100%) | 5 (5=81-100%) |
| COCCc1noc(Cn2cc(C(F)(F)F)nc2-c2ccc(C(F)(F)F)cc2)n1 [Compound 1.011] | 1 (1=0-20%) | 1 (1=0-20%) | 1 (1=0-20%) | 1 (1=0-20%) | 1 (1=0-20%) | 1 (1=0-20%) | 1 (1=0-20%) | 1 (1=0-20%) |
| Cc1noc(Cn2cc(C(F)(F)F)nc2-c2ccc(S(C)(=O)=O)cc2)n1 [Compound 1.176] | 1 (1=0-20%) | 1 (1=0-20%) | 1 (1=0-20%) | 1 (1=0-20%) | 1 (1=0-20%) | 1 (1=0-20%) | 1 (1=0-20%) | 1 (1=0-20%) |
